Laboratory results reported in PMC11995724, “Antibiotic target discovery by integrated phenotypic and activity-based profiling of electrophilic fragments” (Cell chemical biology, 2025).

Assay: in vitro
Conditions: human, hek293t cells

SMILES | viability at 48 h, 25 µM
C=CC(=O)NCC(C)Cn1nccc1C (centres unmarked) [1-H14, N-[2-methyl-3-(5-methyl-1H-pyrazol-1-yl)propyl]prop-2-enamide] | 87.8%
C=CC(=O)N1CCN(CC(=O)NC)CC1 [1-F03, N-methyl-2-[4-(prop-2-enoyl)piperazin-1-yl]acetamide] | 158%
C=CC(=O)N1CCC(Cn2cnnc2)CC1 [3-P09, 1-{4-[(4H-1,2,4-triazol-4-yl)methyl]piperidin-1-yl}prop-2-en-1-one] | 43.5%
C=CC(=O)N1CCC(C(=O)NC2CCOC3(CCSCC3)C2)CC1 (centres unmarked) [2-B12, N-{1-oxa-9-thiaspiro[5.5]undecan-4-yl}-1-(prop-2-enoyl)piperidine-4-carboxamide] | 97.1%
C=CC(=O)NCc1ncccc1S(C)(=O)=O [2-D21, N-[(3-methanesulfonylpyridin-2-yl)methyl]prop-2-enamide] | 80%
COC(=O)c1ccccc1NC(=O)CCl [5-B12, methyl 2-(2-chloroacetamido)benzoate] | 77.7%
Cc1cc(C(=O)CCl)c(C)n1C(C)c1ccccc1 (centres unmarked) [10-P17, 2-chloro-1-[2,5-dimethyl-1-(1-phenylethyl)-1H-pyrrol-3-yl]ethan-1-one] | 113%
CCCC(=O)N1CCC(NC(=O)CCl)c2ccccc21 (centres unmarked) [6-E16, N-(1-butanoyl-1,2,3,4-tetrahydroquinolin-4-yl)-2-chloroacetamide] | 17.5%
N#CC(=Cc1ccc([N+](=O)[O-])c(Cl)c1)C(=O)NC1CCCCC1 [8-B08, 3-(3-chloro-4-nitrophenyl)-2-cyano-N-cyclohexylprop-2-enamide] | 0.92%
O=C(CCl)Cc1c(F)cccc1F [10-O15, 1-chloro-3-(2,6-difluorophenyl)propan-2-one] | 95.8%
COc1ccc(CCNC(=O)C(C)Cl)cc1 (centres unmarked) [5-D12, 2-chloro-N-[2-(4-methoxyphenyl)ethyl]propanamide] | 104%
C=CC(=O)N1CCC[C@H]1Cn1cc(C2CC2)nn1 [1-L18, 1-[(2S)-2-[(4-cyclopropyl-1H-1,2,3-triazol-1-yl)methyl]pyrrolidin-1-yl]prop-2-en-1-one] | 92.2%
COc1ccccc1CNC(=O)C(C)Cl (centres unmarked) [5-M21, 2-chloro-N-[(2-methoxyphenyl)methyl]propanamide] | 68.7%
C=CC(=O)NCc1ccc(C(=O)N2CCC[C@H]2C(=O)NC)cc1 [3-L06, (2S)-N-methyl-1-{4-[(prop-2-enamido)methyl]benzoyl}pyrrolidine-2-carboxamide] | 80.6%
C=CC(=O)N1CCN(Cc2cc(C)no2)CC1 [1-B18, 1-{4-[(3-methyl-1,2-oxazol-5-yl)methyl]piperazin-1-yl}prop-2-en-1-one] | 70.8%
C=CCNC(=O)C(C#N)=Cc1ccc(C#N)cc1 [8-O07, 2-cyano-3-(4-cyanophenyl)-N-(prop-2-en-1-yl)prop-2-enamide] | 85.6%
O=C(CCl)Nc1nnc(SCc2ccccc2)s1 [4-F15, N-[5-(benzylsulfanyl)-1,3,4-thiadiazol-2-yl]-2-chloroacetamide] | 0.76%
COC(=O)c1c(NC(=O)CCl)sc(Cl)c1-c1ccccc1 [4-E20, methyl 5-chloro-2-(2-chloroacetamido)-4-phenylthiophene-3-carboxylate] | 0.576%
C=CC(=O)N1CCC(C(=O)NCc2nccn2C)(c2ccccc2)CC1 [3-I10, N-[(1-methyl-1H-imidazol-2-yl)methyl]-4-phenyl-1-(prop-2-enoyl)piperidine-4-carboxamide] | 92.9%
N#CC(=Cc1cc2c(cc1[N+](=O)[O-])OCO2)C(=O)NC1CCCCC1 [8-F22, 2-cyano-N-cyclohexyl-3-(6-nitro-1,3-dioxaindan-5-yl)prop-2-enamide] | 87.7%
O=C(CCl)N(Cc1ccccc1)c1ccccc1 [4-G13, N-benzyl-2-chloro-N-phenylacetamide] | 1.23%
N#CC(=Cc1cccc2c1OCCCO2)C(=O)NCc1ccccc1 [9-G05, N-benzyl-2-cyano-3-(3,4-dihydro-2H-1,5-benzodioxepin-6-yl)prop-2-enamide] | 114%
N#CC(C(=O)CCl)=C(c1ccc(F)cc1)N1CCOCC1 [10-C20, 4-chloro-2-[(4-fluorophenyl)(morpholin-4-yl)methylidene]-3-oxobutanenitrile] | 53.6%
N#CC(=Cc1cccnc1)C(=O)NCc1ccccc1 [9-I14, N-benzyl-2-cyano-3-(pyridin-3-yl)prop-2-enamide] | 113%
O=CN1CCc2cc(C(=O)CCl)ccc21 [10-K20, 5-(2-chloroacetyl)-2,3-dihydro-1H-indole-1-carbaldehyde] | 89.7%
C=CC(=O)N(C1CCCC1)C(C)c1nnc2ccccn12 (centres unmarked) [2-B07, N-cyclopentyl-N-(1-{[1,2,4]triazolo[4,3-a]pyridin-3-yl}ethyl)prop-2-enamide] | 51.9%
O=C(CCl)c1ccc2[nH]c(=O)[nH]c2c1 [10-I14, 5-(2-chloroacetyl)-2,3-dihydro-1H-1,3-benzodiazol-2-one] | 1.71%

SMILES | viability at 48 h, 25 µM
C=CC(=O)N1CCCC2(CCCOC2)C1 (centres unmarked) [3-E11, 1-{2-oxa-8-azaspiro[5.5]undecan-8-yl}prop-2-en-1-one] | 46.3%
CC(Cl)C(=O)NC1CCCn2nccc21 (centres unmarked) [6-J16, 2-chloro-N-{4H,5H,6H,7H-pyrazolo[1,5-a]pyridin-4-yl}propanamide] | 113%
C=CC(=O)N(C)Cc1cn(C2CC2)cn1 [2-J13, N-[(1-cyclopropyl-1H-imidazol-4-yl)methyl]-N-methylprop-2-enamide] | 76.5%
C=CC(=O)Nc1ccc(C(=O)N2C[C@H](O)C[C@H]2C(=O)OC)cc1 [2-O21, methyl (2S,4R)-4-hydroxy-1-[4-(prop-2-enamido)benzoyl]pyrrolidine-2-carboxylate] | 145%
CC(Cl)C(=O)N1CCn2c(cc3c(Cl)cccc32)C1 (centres unmarked) [7-D17, 2-chloro-1-{9-chloro-1H,2H,3H,4H-pyrazino[1,2-a]indol-2-yl}propan-1-one] | 55.6%
C=CC(=O)NCCC(=O)N1CCC(c2ncccn2)CC1 [3-M17, N-{3-oxo-3-[4-(pyrimidin-2-yl)piperidin-1-yl]propyl}prop-2-enamide] | 62.4%
C=CC(=O)N1CSCC1C(=O)N(C)C (centres unmarked) [1-G03, N,N-dimethyl-3-(prop-2-enoyl)-1,3-thiazolidine-4-carboxamide] | 75.4%
COc1ccc2[nH]c3c(c2c1)CCCC3NC(=O)CCl (centres unmarked) [5-G07, 2-chloro-N-(6-methoxy-2,3,4,9-tetrahydro-1H-carbazol-1-yl)acetamide] | 0.129%
CC(Cl)C(=O)Nc1ccc2oc(=O)n(CCN(C)C)c2c1 (centres unmarked) [5-L19, 2-chloro-N-{3-[2-(dimethylamino)ethyl]-2-oxo-2,3-dihydro-1,3-benzoxazol-5-yl}propanamide] | 109%
CS(=O)(=O)Nc1ccc(C(=O)CCl)cc1 [10-D19, N-[4-(2-chloroacetyl)phenyl]methanesulfonamide] | 76.6%
C=CC(=O)N1CC(C)OC2(CCOCC2)C1 (centres unmarked) [3-I12, 1-{2-methyl-1,9-dioxa-4-azaspiro[5.5]undecan-4-yl}prop-2-en-1-one] | 91.6%
CC(Cl)C(=O)N1C2C=C(c3ccccc3)CC1CC2 (centres unmarked) [7-C09, 2-chloro-1-{3-phenyl-8-azabicyclo[3.2.1]oct-2-en-8-yl}propan-1-one] | 81.3%
O=C(CCl)NCC1CCCCN1C(=O)C(F)(F)F (centres unmarked) [5-C07, 2-chloro-N-{[1-(2,2,2-trifluoroacetyl)piperidin-2-yl]methyl}acetamide] | 1.83%
CCN(C(=O)C(C)Cl)c1ccccc1 (centres unmarked) [4-P16, 2-chloro-N-ethyl-N-phenylpropanamide] | 109%
C=CC(=O)N(Cc1cccc2cccnc12)C1CCCN(CC)C1 (centres unmarked) [1-H11, N-(1-ethylpiperidin-3-yl)-N-[(quinolin-8-yl)methyl]prop-2-enamide] | 55.3%
O=C(CCl)NCc1ccccc1S(=O)(=O)N1CCOCC1 [4-F22, 2-chloro-N-{[2-(morpholine-4-sulfonyl)phenyl]methyl}acetamide] | 2.15%
C=CC(=O)NC(C)(Cn1cccn1)C(N)=O (centres unmarked) [1-A20, N-{1-carbamoyl-1-[(1H-pyrazol-1-yl)methyl]ethyl}prop-2-enamide] | 113%
O=C(CCl)Cc1cccc(F)c1F [10-K17, 1-chloro-3-(2,3-difluorophenyl)propan-2-one] | 33.7%
Cn1cc(C(=O)CCl)cc1C(=O)C(Cl)(Cl)Cl [10-N22, 2,2,2-trichloro-1-[4-(2-chloroacetyl)-1-methyl-1H-pyrrol-2-yl]ethan-1-one] | 1.4%
Cc1nn(CC(F)(F)F)c(C)c1C1COCCN1C(=O)CCl (centres unmarked) [5-J13, 2-chloro-1-{3-[3,5-dimethyl-1-(2,2,2-trifluoroethyl)-1H-pyrazol-4-yl]morpholin-4-yl}ethan-1-one] | 2.86%
Cn1cc(C=C(C#N)C(=O)NCCc2ccccc2)cn1 [8-L10, 2-cyano-3-(1-methyl-1H-pyrazol-4-yl)-N-(2-phenylethyl)prop-2-enamide] | 101%
Cn1nc(C(F)(F)F)cc1CN(C(=O)CCl)C1CCCC1 [5-C16, 2-chloro-N-cyclopentyl-N-{[1-methyl-3-(trifluoromethyl)-1H-pyrazol-5-yl]methyl}acetamide] | 0.815%
CC(Cl)C(=O)NCc1nnc(-c2ccncc2F)s1 (centres unmarked) [7-K18, 2-chloro-N-{[5-(3-fluoropyridin-4-yl)-1,3,4-thiadiazol-2-yl]methyl}propanamide] | 78.4%
C=CC(=O)N1CCC(C(=O)NOC2CCCC2)(c2ccccc2)CC1 [3-K06, N-(cyclopentyloxy)-4-phenyl-1-(prop-2-enoyl)piperidine-4-carboxamide] | 77.1%
Cc1nc(C)n(C2CCCN(C(=O)C(C)Cl)C2)n1 (centres unmarked) [7-P13, 2-chloro-1-[3-(3,5-dimethyl-1H-1,2,4-triazol-1-yl)piperidin-1-yl]propan-1-one] | 92.3%
O=C1C=CC(=O)N1c1ccc2ccccc2c1 [10-D07, 1-(naphthalen-2-yl)-2,5-dihydro-1H-pyrrole-2,5-dione] | 74.4%
